Test results as given in patent US10729690B2, “Antihelminthic medications for pathogenic nematodes” (priority 2016, dated 2020).
Entries after “also recorded” stand apart in the source; their conditions may differ.

Assays:
P. aeruginosa = test: In vitro P. aeruginosa growth assay in the absence of C. elegans; type: cell-based
[1] = tested on: C. elegans genome (immune and detoxification gene transcription); conditions: previously observed; not dependent on p38 MAPK PMK-1 pathway; cited from earlier work
[2] = tested on: P. aeruginosa infection of C. elegans; test: "Slow killing" P. aeruginosa infection (pathogenesis) assay in C. elegans; type: in vivo
[3] = tested on: C. elegans genome (immune and detoxification gene transcription); test: Transcriptome profiles of wild-type nematodes (Affymetrix whole genome genechips); type: in vivo
Method: The effects of R24 on C. elegans was further characterized by generating transcriptome profiles of wild-type nematodes following exposure to either 70 μM R24 or the solvent control DMSO using Affymetrix whole genome […] induced a remarkably robust transcriptional response that involved only a small fraction ( 1.3%) of the genes of the C. elegans genome. […] For example, seventy (70) of the two hundred sixty-nine (269) […]. aeruginosa using a previously described gene set. Troemel et al., (2006).

[4] = tested on: p38 MAPK PMK-1-dependent antimicrobial immune effectors; type: in vivo, C. elegans; conditions: qRT-PCR
C. elegans [5] = test: C. elegans survival in the absence of pathogen; type: in vivo
Text: (§1) In reports describing the anti-infective, immunostimulatory xenobiotic R24 it was noted that this compound was toxic to nematodes growing in the absence of pathogen. Pukkila-Worley et al., (2012). […] FIG. 4A. […] FIG. 4B.

[6] = tested on: F08G5.6::GFP (p38 MAPK PMK-1 pathway-dependent immune effector reporter); test: F08G5.6::GFP immune transcriptional reporter in C. elegans; type: in vivo
[7] = tested on: p38 MAPK PMK-1-dependent antimicrobial immune effectors; conditions: nanoString codeset of 118 genes; previous study (Pukkila-Worley 2014); cited from earlier work
C. elegans [8] = test: C. elegans brood size; type: in vivo; conditions: absence of pathogen
Text: as §1

nematodes = test: Nematode killing by UPR inducers combined with immunostimulatory molecules; type: in vivo
Text: In one embodiment, the present invention contemplates a method comprising administering small molecules having clinical antihelminthic efficacy by inducing an unfolded protein response (UPR) in endoplasmic reticulum. In one embodiment, the unfolded endoplasmic reticulum protein response is mediated by small molecules including, but not limited to, tunicamycin and bortezomib (Velcade®). […] See, FIG. 4C. Although it is not necessary to understand the mechanism of an invention, it is believed that components of the nematode UPR are strongly conserved and thus UPR inducers will have dose-limiting toxicity in mammals.
Nematocidal activity of different combinations of these molecules and known anti-helminthics (e.g. ivermectin and albendazole) can be tested to identify those that have synergistic activity. For example, antihelminthic efficacy of chemical inducers of the UPR (e.g. tunicamycin) can be used.

Row | Compound | growth of P. aeruginosa in an in vitro assay (P. aeruginosa) | induction of detoxification genes/enzymes (CYPs, GSTs, UDPs) [1] | ability of R24 to prolong lifespan of C. elegans with mutations in four other p38 MAP kinase pathway components ([2]; p38 MAP kinase pathway mutants, data not shown) | R24-mediated lifespan prolongation of pmk-1(km25) null mutants infected with P. aeruginosa, compared to compound-treated wild-type ([2]; pmk-1(km25) null mutants, P<0.001) | C. elegans survival during P. aeruginosa bacterial infection ([2]; wild-type C. elegans) | number of the 269 R24-induced genes activated during infection with P. aeruginosa ([3]; 70 μM R24, overlap P<2.7×10^−16) [genes] | number of genes induced more than 50-fold ([3]; 70 μM R24 vs DMSO) [genes] | number of genes upregulated three-fold or greater ([3]; 70 μM R24 vs DMSO, P<0.025) [genes] | fraction of the genes of the C. elegans genome involved in the transcriptional response ([3]; 70 μM R24 vs solvent control DMSO, wild-type) [%] | antimicrobial immune effectors induced by R24 in wild-type that pmk-1(km25) mutants failed to upregulate [4] | C. elegans survival (C. elegans [5]) | F08G5.6::GFP expression in nsy-1(ums8) mutant exposed to R24, compared to untreated nsy-1(ums8) animals ([6]; nsy-1(ums8) gain-of-function mutant, 70 μM R24 (FIG. 11B)) | F08G5.6::GFP transgene expression ([6]; uninfected nematodes) | number of codeset genes whose induction by R24 was dependent on the p38 MAPK PMK-1 [7] [genes] | brood sizes of nematodes exposed from the first larval stage (C. elegans [8]) | killing of nematodes in combination with immunostimulatory molecules (nematodes)
1 | Cc1ccc(Nc2nc(N)c3ccccc3n2)cc1Cl [R24] | lack of effect; also recorded: did not have any effect | robust induction; also recorded: causes the induction | dramatically attenuated | Lack of improved survivability; also recorded: significantly decreased | dose-dependent improvement; also recorded: Improved survivability; also recorded: protects | 70 | 125 | 269 | ~1.3 | six of ten | dose dependent shortening | markedly increased | strongly induced | 13 | dramatically smaller | –
2 | CC(C)C[C@H](NC(=O)[C@H](Cc1ccccc1)NC(=O)c1cnccn1)B(O)O [bortezomib] | – | – | – | – | – | – | – | – | – | – | – | – | – | – | – | act synergistically
3 | tunicamycin | – | – | – | – | – | – | – | – | – | – | – | – | – | – | – | act synergistically
